The values below come from patent publication US4837223A, “(S)-alpha-ethyl-2-oxo-1-pyrrolidineacetamide compositions” (UCB Societe Anonyme, priority 1984, dated 1989).

Each structure is given as a SMILES string.

For data set [1] the following is noted: Pharmazie, 37/11, (1982), 753-765; cited from earlier work.
Data set [2] in a line: Toxicity, LD50 after intravenous administration, mouse. As to conditions: in vivo, male mouse. From the text: (§1) Table III below gives, for compounds A and B, the LD50, in mg/kg, determined on the male mouse and the male rat after intravenous administration: […]
Data set [3] has as its system male mouse and male rat. Nature of the data set: Toxicity, conclusion from LD50 in mouse and rat. The data set is classed as in vivo. As to conditions: for toxicity: intravenous, mouse and rat.
Description: as §1

Data set [4] can be described thus: Toxicity, LD50 after intravenous administration, rat. The conditions noted are these: in vivo, male rat.
Description: as §1

The nature of data set [5]: Protection against hypoxia (mouse), survival in atmosphere of progressively decreasing oxygen. In kind it is in vivo, mouse (male, NMRI strain). The conditions noted are these: for minimal effective dose: Mus musculus, po, read-out: 1st effective dose (increases survival of animals deprived of oxygen, from this dose upwards); for Number of surviving animals, treated: survivors/treated. From the text: I. Protection against hypoxia (mouse)
a. Principle (C. GIURGEA and F. MOURAVIEFF-LESUISSE; Proc. Xth Intern. Congr. of the Coll. Intern. Neuro-psych.-Pergamon Press, Oxford and New York, 1978, p. 1623-1631).
Due to the particular sensitivity of the nervous system to this type of aggression, the results obtained in this test can be interpreted as a measure of the resistance of the central nervous system. Compounds which increase the resistance of the animals to this stress are suitable for the treatment and prevention of hypoxic type aggressions of the central nervous system.
The apparatus consists of an airtight transparent cage 37 cm high, 39 cm deep and 97 cm wide. This 140 liter cage is provided with 60 transparent compartments each 6×10×10 cm, making it possible to separately accomodate 60 mice.
A fan ensures circulation of the atmosphere between the compartments through a grid floor. The cage is equipped with a device for introducing nitrogen at a constant flow rate, and with an orifice communicating with the ambient atmosphere. Male mice (NMRI strain) weighing 20 to 22 g, are kept fasting as from the day before the test. The experiment is effected on the following day, simultaneously on 3 groups of 20 mice; a control group is given water (25 ml/kg) orally, and the other two groups are each given orally a compound to be tested.
25 minutes after the administration, the animals are distributed at random amongst the compartments so that none of the three groups is concentrated in a preferred area of the cage.
30 minutes after administration, the cage is closed and nitrogen is admitted into it at a constant flow rate (7.75 liters of technical grade nitrogen per minute) for about 37 minutes, at which stage the atmosphere contains 3.7% oxygen.
The cage is left closed until the critical moment where no more than 3 survivors are observed among the 20 control animals. At that moment, the cage is opened and atmospheric air admitted into it. A few moments later the survivors in each group of animals are counted.
For each dose of compound to be tested, the experiments are repeated once or twice, and the results pooled to obtain a minimum of 40 (or 60) animals treated per dose and 40 (or 60) corresponding control animals.
For each dose of compound tested, the number of surviving animals among those treated with the compound is compared with the number of surviving animals among the control animals. The difference between these numbers expresses the protective activity of the compound against hypoxia caused by oxygen deprivation. The statistical significance (P) of this difference is evaluated by the Fischer-Yates test.

The nature of data set [6]: Protection against cerebral ischemia (rats), survival after ligature of the 2 common carotids. In kind it is in vivo, rat (male Wistar). The conditions noted are these: for lowest active dose (protects against lethality induced by simultaneous ligature of the two carotids, from this dose upwards): intraperitoneal; for Number of surviving animals, treated: survivors/treated, 24 hours. How it is done:
II. Protection against cerebral ischemia (rats)
a. Principle (C. GIURGEA and F. MOURAVIEFF-LESUISSE; see above under Ia.
Electroencephalographic controls have shown that the ligature of the 2 common carotids in the rat causes a true cerebral ischemia: the electroencephalogram trace flattens and even becomes isoelectric (electric silence).
Male Wistar rats weighing between 250 and 350 g are anesthetized with pentobarbital administered intraperitoneally at a dose of 50 mg/kg (0.5 ml/100 g).
Immediately after the anesthesia, the animals are administered intraperitoneally with an amount of 0.5 ml/100 g, either the compound to be tested dissolved in an isotonic sodium chloride solution (treated animals), or only an isotonic sodium chloride solution or placebo (control animals). About 20 minutes later, the 2 common carotids are exposed and about 10 minutes later ligatured simultaneously. This operation is effected simultaneously on the control animals and the treated animals.
An hour after administration of the compound to be tested or of the placebo, there is again administered intraperitoneally the same dose of either the compound to be tested (to the treated animals) or the placebo (to the control animals).
5 hours after the first administration, there is administered for the third time the same dose of either the compound to be tested (to the surviving treated animals) or the placebo (to the surviving control animals). 24 hours after the first administration the efficacy of the ligature is verified in all animals, under pentobarbital anesthesia, by section of the carotids downstream of the ligature. The number of surviving animals is recorded among both the treated animals and the control animals. For each dose of compound tested, the number of surviving animals among those treated with the compound is compared with the number of surviving animals among the control animals. The difference expresses the protective activity of the compound against the lethality induced by the simultaneous ligature of the 2 carotids. The statistical significance (P) of this difference is evaluated by the Brandt-Snedecor test.

Where [7] appears, read: intraperitoneal dose 0.32 mmol/kg.

As a reminder, the LD50 is the dose expected to kill half of the subjects tested. Read a high LD50 as lower toxicity. Regarding `CCC(C(N)=O)N1CCCC1=O` (racemic) [A, Racemic alpha-ethyl-2-oxo-1-pyrrolidineacetamide, reference compound], the “protective activity against aggressions of the central nervous system caused by hypoxias, cerebral ischemia, etc.” value in data set [1] was “possesses a protective activity”. Besides, the LD50 came to 1790 mg/kg in data set [2] and 1500 mg/kg in data set [4]. For the same compound, in data set [3], the toxicity result is “very low toxicity”. In data set [5], the minimal effective dose came to 320 µmol/kg. Besides, the “Number of surviving animals, treated” value in data set [5] (oral dose 0.032 mmol/kg) was 16/60; in data set [5] (oral dose 0.1 mmol/kg) it was 7/60; in data set [5] (oral dose 0.16 mmol/kg) it was 12/60; in data set [5] (oral dose 0.32 mmol/kg), 30/60; in data set [6] (setting [7]), 8/29; in data set [6] (intraperitoneal dose 0.64 mmol/kg) it was 21/30. Further, the “lowest active dose (protects against lethality induced by simultaneous ligature of the two carotids, from this dose upwards)” value in data set [6] worked out at 0.64 mmol/kg.
With `CC[C@@H](C(N)=O)N1CCCC1=O` [B, (S)-alpha-ethyl-2-oxo-1-pyrrolidineacetamide], the LD50 is 1080 mg/kg in data set [2] and 1040 mg/kg in data set [4]. Besides, in data set [3] (in vivo), the “toxic dose compared with active dose” value is listed as “toxic dose is well above the active dose”. For the same compound, in data set [3], the toxicity entry is “very low toxicity”. Besides, the minimal effective dose in data set [5] amounted to 32 µmol/kg. The “Number of surviving animals, treated” value is reported as 11/40 in data set [5] (oral dose 0.016 mmol/kg); 17/40 in data set [5] (oral dose 0.032 mmol/kg); 19/40 in data set [5] (oral dose 0.1 mmol/kg); 19/40 in data set [5] (oral dose 0.16 mmol/kg); 17/40 in data set [5] (oral dose 0.32 mmol/kg); 14/29 in data set [6] (intraperitoneal dose 0.1 mmol/kg). For the same compound, the “Number of surviving animals, treated” value in data set [6] (intraperitoneal dose 0.16 mmol/kg) is given as 14/30; in data set [6] (setting [7]), 19/29. In data set [5] (vs racemate (compound A)), the “protective activity against hypoxia relative to the racemate” value amounted to 10 times. Moreover, the “lowest active dose (protects against lethality induced by simultaneous ligature of the two carotids, from this dose upwards)” value in data set [6] came out at 0.16 mmol/kg. Moreover, the “protective activity against ischemia relative to the racemate” value in data set [6] (vs racemate (compound A)) stood at 4 times.
